Laboratory results: patent US12643910B2, “Substituted pyrazolo[3,4-b]pyridines as ectonucleotide pyrophosphatase/phosphodiesterase 1 (ENPP1) modulators” (SANFORD BURNHAM PREBYS MEDICAL DISCOVERY INSTITUTE, priority 2019, dated 2026)

Legend:
ENPP3 = molecular target: T1, ENPP3 (Homo sapiens, UniProt O14638); experiment: ENPP3 Km ATP assay; assay type: biochemical; details: ATP at Km
T1 sequence (O14638 1-875): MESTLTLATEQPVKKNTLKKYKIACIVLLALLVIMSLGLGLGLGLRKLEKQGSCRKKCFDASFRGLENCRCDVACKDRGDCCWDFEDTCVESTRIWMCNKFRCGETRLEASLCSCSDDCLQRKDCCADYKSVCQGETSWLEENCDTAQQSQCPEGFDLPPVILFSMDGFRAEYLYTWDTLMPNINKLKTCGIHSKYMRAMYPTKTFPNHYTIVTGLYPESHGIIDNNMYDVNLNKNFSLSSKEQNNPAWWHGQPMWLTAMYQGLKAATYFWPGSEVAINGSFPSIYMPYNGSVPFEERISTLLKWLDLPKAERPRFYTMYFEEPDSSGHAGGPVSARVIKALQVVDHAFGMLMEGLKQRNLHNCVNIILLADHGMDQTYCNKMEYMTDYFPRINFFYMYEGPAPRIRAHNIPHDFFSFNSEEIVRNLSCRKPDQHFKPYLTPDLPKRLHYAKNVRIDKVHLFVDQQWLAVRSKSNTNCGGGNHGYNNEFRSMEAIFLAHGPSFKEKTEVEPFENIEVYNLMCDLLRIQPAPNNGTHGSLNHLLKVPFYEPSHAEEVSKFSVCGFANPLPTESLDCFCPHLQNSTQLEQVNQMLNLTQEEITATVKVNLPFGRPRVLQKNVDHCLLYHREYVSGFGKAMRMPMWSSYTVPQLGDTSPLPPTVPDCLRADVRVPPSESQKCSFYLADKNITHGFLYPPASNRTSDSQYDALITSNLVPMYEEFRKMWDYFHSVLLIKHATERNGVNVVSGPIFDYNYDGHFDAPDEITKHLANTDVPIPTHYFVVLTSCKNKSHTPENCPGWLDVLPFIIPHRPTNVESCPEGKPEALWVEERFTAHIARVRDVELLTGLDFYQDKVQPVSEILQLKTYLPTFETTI

human ENPP1 = molecular target: T2, human ENPP1 (Homo sapiens, UniProt P22413); experiment: ENPP1 assay with ATP substrate (Transcreener AMP2/GMP2 TR-FRET); assay type: biochemical; details: 1 hour at room temperature
T2 construct: made in house
T2 sequence (P22413 1-925): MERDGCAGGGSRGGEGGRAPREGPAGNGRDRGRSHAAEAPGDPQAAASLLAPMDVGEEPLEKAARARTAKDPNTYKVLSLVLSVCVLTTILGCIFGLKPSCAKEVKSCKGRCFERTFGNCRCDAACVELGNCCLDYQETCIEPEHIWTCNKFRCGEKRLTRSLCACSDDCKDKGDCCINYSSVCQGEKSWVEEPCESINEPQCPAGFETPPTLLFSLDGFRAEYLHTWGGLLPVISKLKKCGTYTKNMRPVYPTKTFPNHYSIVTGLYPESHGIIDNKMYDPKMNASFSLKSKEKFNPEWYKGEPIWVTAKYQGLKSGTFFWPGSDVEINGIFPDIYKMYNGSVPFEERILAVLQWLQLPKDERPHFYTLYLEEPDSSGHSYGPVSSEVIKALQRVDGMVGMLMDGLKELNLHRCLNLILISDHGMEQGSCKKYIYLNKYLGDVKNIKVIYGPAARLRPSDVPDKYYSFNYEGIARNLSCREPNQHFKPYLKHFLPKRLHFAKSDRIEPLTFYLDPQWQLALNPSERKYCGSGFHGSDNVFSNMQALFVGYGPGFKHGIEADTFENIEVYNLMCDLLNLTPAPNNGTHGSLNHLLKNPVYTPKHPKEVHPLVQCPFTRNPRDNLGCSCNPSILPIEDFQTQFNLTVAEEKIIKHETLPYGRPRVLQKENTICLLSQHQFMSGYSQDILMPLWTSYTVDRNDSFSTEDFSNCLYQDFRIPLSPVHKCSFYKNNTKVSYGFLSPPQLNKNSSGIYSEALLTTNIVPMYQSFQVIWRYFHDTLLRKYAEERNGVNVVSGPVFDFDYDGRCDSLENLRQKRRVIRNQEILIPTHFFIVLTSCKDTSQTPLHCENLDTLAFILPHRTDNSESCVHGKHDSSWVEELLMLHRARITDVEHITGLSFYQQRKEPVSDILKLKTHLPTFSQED
Outline: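 5′-AMP from ATP hydrolysis (300 nM ATP stock added; enzyme added as 8.5 μM stock) detected by competitive TR-FRET. Buffer: 50 mM Tris pH 7.5, 1 mM TCEP, 2 mM MgCl2, 0.005% Tween 20, 1% DMSO. Reaction 1 h at room temperature, EDTA stop. IC50 from 2-parameter variable-slope fit.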

Structure (SMILES)	IC50 (ENPP3) [µM]	IC50 (human ENPP1) [µM]
NS(=O)(=O)c1ccc(CNc2nc(NCCO)nc3scc(-c4ccccc4)c23)cc1 [Example 1.50, 4-((2-(2-Hydroxyethylamino)-5-phenylthieno[2,3-d]pyrimidin-4-yl)aminomethyl)-benzenesulfonamide]	< 0.1	< 0.1
NS(=O)(=O)c1ccc(CNc2nc(NCCCO)nc3scc(-c4ccccc4)c23)cc1 [Example 1.51, 4-((2-(3-Hydroxypropyl)amino-5-phenylthieno[2,3-d]pyrimidin-4-yl)aminomethyl)-benzenesulfonamide]	< 0.1	< 0.1
CCN(CCO)c1nc(NCc2ccc(S(N)(=O)=O)cc2)c2c(-c3ccccc3)csc2n1 [Example 1.52, 4-((2-(N-Ethyl-N-(2-hydroxyethyl)amino)-5-phenylthieno[2,3-d]pyrimidin-4-yl)aminomethyl)-benzenesulfonamide]	0.1 to 1	< 0.1
CCN(c1nc(NCc2ccc(S(N)(=O)=O)cc2)c2c(-c3ccccc3)csc2n1)C(C)(C)CO [Example 1.53, 4-((2-(N-Ethyl-N-(1-hydroxy-2-methylpropan-2-yl)amino)-5-phenylthieno[2,3-d]pyrimidin-4-yl)aminomethyl)benzenesulfonamide]	0.1 to 1	0.1 to 1
COCCNc1nc(NCc2ccc(S(N)(=O)=O)cc2)c2c(-c3ccccc3)csc2n1 [Example 1.54, 4-((2-(2-Methoxyethyl)amino-5-phenylthieno[2,3-d]pyrimidin-4-yl)aminomethyl)-benzenesulfonamide]	< 0.1	< 0.1
COCCN(C)c1nc(NCc2ccc(S(N)(=O)=O)cc2)c2c(-c3ccccc3)csc2n1 [Example 1.55, 4-((2-(N-Methyl-N-(2-methoxyethyl)amino)-5-phenylthieno[2,3-d]pyrimidin-4-yl)aminomethyl)benzenesulfonamide]	0.1 to 1	< 0.1
COCCCNc1nc(NCc2ccc(S(N)(=O)=O)cc2)c2c(-c3ccccc3)csc2n1 [Example 1.56, 4-((2-(3-Methoxypropyl)amino-5-phenylthieno[2,3-d]pyrimidin-4-yl)aminomethyl)-benzenesulfonamide]	< 0.1	< 0.1
Nc1nc(NCc2ccc(S(N)(=O)=O)cc2)c2c(-c3ccccc3)csc2n1 [Example 1.57, 4-((2-Amino-5-phenylthieno[2,3-d]pyrimidin-4-yl)aminomethyl)benzenesulfonamide]	0.1 to 1	< 0.1
CN(C)CCN(C)c1nc(NCc2ccc(S(N)(=O)=O)cc2)c2c(-c3ccccc3)csc2n1 [Example 1.58, 4-((2-((N-2-(Dimethylamino)ethyl)-N-methylamino)-5-phenylthieno[2,3-d]pyrimidin-4-yl)aminomethyl)benzenesulfonamide]	< 0.1	< 0.1
CN(C)CCCNc1nc(NCc2ccc(S(N)(=O)=O)cc2)c2c(-c3ccccc3)csc2n1 [Example 1.59, 4-((2-(3-Dimethylaminopropyl)amino-5-phenylthieno[2,3-d]pyrimidin-4-yl)aminomethyl)-benzenesulfonamide]	< 0.1	< 0.1
CN(C)CCNc1nc(NCc2ccc(S(N)(=O)=O)cc2)c2c(-c3ccccc3)csc2n1 [Example 1.60, 4-((2-(2-Dimethylamino)ethylamino-5-phenylthieno[2,3-d]pyrimidin-4-yl)aminomethyl)-benzenesulfonamide]	< 0.1	< 0.1
Cc1nc(NCc2ccc(S(N)(=O)=O)cc2)c2c3c(sc2n1)CCCC3 [Example 1.64, 4-((2-Methyl-5,6,7,8-tetrahydro[1]benzothieno[2,3-d]pyrimidin-4-yl)aminomethyl)-benzenesulfonamide]	1 to 20	> 20
CC(Nc1ncnc2scc(-c3ccccc3)c12)c1ccc(S(N)(=O)=O)cc1 (centres unmarked) [Example 1.65, 4-(1-(5-Phenylthieno[2,3-d]pyrimidin-4-yl)aminoethyl)benzenesulfonamide]	1 to 20	1 to 20
NS(=O)(=O)N1CCC(CNc2ncnc3scc(-c4ccccc4)c23)CC1 [Example 1.66, 4-(5-Phenylthieno[2,3-d]pyrimidin-4-yl)aminomethyl-1-piperidinesulfonamide]	1 to 20	0.1 to 1
NS(=O)(=O)N1CCC(CNc2nc(-c3ccccn3)nc3scc(-c4ccccc4)c23)CC1 [Example 1.67, 4-((5-Phenyl-2-(2-pyridyl)thieno[2,3-d]pyrimidin-4-yl)aminomethyl)-1-piperidinesulfonamide]	1 to 20	0.1 to 1
NS(=O)(=O)c1ccc(CNc2ncnc3scc(C4=CCCCC4)c23)cc1 [Example 1.69, 4-((5-(1-Cyclohexenyl)thieno[2,3-d]pyrimidin-4-yl)aminomethyl)benzenesulfonamide]	0.1 to 1	> 20
NS(=O)(=O)c1ccc(COc2ncnc3scc(-c4ccccc4)c23)cc1 [Example 1.70, 4-((5-Phenylthieno[2,3-d]pyrimidin-4-yl)oxymethyl)benzenesulfonamide]	1 to 20	0.1 to 1
Cn1ncc2c(NCc3ccc(S(N)(=O)=O)c(F)c3)ncnc21 [Example 2.1, 2-Fluoro-4-(((1-methyl-1H-pyrazolo[3,4-d]pyrimidin-4-yl)amino)methyl)-benzenesulfonamide]	1 to 20	< 0.1
Cc1cc(S(N)(=O)=O)ccc1CNc1ncnc2c1cnn2C [Example 2.2, 3-Methyl-4-(((1-methyl-1H-pyrazolo[3,4-d]pyrimidin-4-yl)amino)methyl)-benzenesulfonamide]	1 to 20	0.1 to 1
COc1cc(S(N)(=O)=O)ccc1CNc1ncnc2c1cnn2C [Example 2.3, 3-Methoxy-4-(((1-methyl-1H-pyrazolo[3,4-d]pyrimidin-4-yl)amino)methyl)-benzenesulfonamide]	1 to 20	0.1 to 1
Cn1ncc2c(NCc3ccc(S(N)(=O)=O)c(Cl)c3)ncnc21 [Example 2.4, 2-Chloro-4-(((1-methyl-1H-pyrazolo[3,4-d]pyrimidin-4-yl)amino)methyl)-benzenesulfonamide]	1 to 20	0.1 to 1
Cn1ncc2c(N3CCC(NCCCc4ccncc4)CC3)ncnc21 [Example 2.5, 1-(1-Methyl-1H-pyrazolo[3,4-d]pyrimidin-4-yl)-N-(3-(pyridin-4-yl)propyl)piperidin-4-amine]	> 20	> 20
CN1CCN(c2nc(N3CCC(NCCCc4ccncc4)CC3)c3cnn(C)c3n2)CC1 [Example 2.6, 1-(1-Methyl-6-(4-methylpiperazin-1-yl)-1H-pyrazolo[3,4-d]pyrimidin-4-yl)-N-(3-(pyridin-4-yl)propyl)piperidin-4-amine]	> 20	> 20
Cn1ncc2c(N3CCC(NCCCc4ccncc4)CC3)nc(-c3ccccc3)nc21 [Example 2.7, 1-(1-Methyl-6-phenyl-1H-pyrazolo[3,4-d]pyrimidin-4-yl)-N-(3-(pyridin-4-yl)propyl)piperidin-4-amine]	> 20	> 20
Cn1cnc2c(NCc3ccc(S(N)(=O)=O)cc3)ncnc21 [Example 2.8, 4-(((9-Methyl-9H-purin-6-yl)amino)methyl)benzenesulfonamide]	1 to 20	> 20
